These results are taken from US20250340551A1, “SMALL MOLECULE MODULATORS OF STAT6” (Gilead Sciences, Inc., priority 2024, published 2025).

What is called pKd is the negative decadic logarithm of the Kd, by convention in mol/L.

pKd: −log10 of the molar value.

human STAT6, sequence (P42226 122-658): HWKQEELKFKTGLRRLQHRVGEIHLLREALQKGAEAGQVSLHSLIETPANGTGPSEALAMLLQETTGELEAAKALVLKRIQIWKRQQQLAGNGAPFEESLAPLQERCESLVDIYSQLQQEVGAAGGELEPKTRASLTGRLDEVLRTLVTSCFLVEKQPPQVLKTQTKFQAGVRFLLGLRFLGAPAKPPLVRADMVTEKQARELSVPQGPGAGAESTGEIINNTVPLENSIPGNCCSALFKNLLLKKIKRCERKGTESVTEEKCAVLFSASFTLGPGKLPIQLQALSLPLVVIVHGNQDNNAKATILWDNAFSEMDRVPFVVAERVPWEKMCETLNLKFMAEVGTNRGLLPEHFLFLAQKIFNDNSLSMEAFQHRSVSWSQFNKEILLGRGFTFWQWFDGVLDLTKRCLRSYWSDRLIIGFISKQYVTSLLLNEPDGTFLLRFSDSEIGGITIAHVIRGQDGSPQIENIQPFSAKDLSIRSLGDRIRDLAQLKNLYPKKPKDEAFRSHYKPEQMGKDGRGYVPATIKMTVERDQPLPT

The target of the assay is human STAT6 (Homo sapiens (Human), UniProt P42226). Description: Surface plasmon resonance assay (Biacore 8K, binding to immobilized STAT6). To be noted: human STAT6 aa122-658, N-terminal His-tag, CM5 chip, 25° C.; geometric mean; read-out: STAT6 SPR Kd. The gist of the method:
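Run at 25° C with His-tagged STAT6 aa122-658 (insect-cell expressed) amine-coupled to a CM5 chip, reference-subtracted, in PBS-P+ with 2% DMSO. Multi-cycle kinetics: 60 sec. contact, up to 300 sec. dissociation. Affinity fitted from late report-point binding isotherms, with Rmax both free and fixed to theoretical 1:1.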
Regarding `C[C@@H](c1cc2c(-c3ccc(N)cn3)ccnc2n1C)N1CC=C(c2ccc(C(=O)N(C)C)cc2)CC1` [Example 1af19, (S)-4-(1-(1-(4-(5-Aminopyridin-2-yl)-1-methyl-1H-pyrrolo[2,3-b]pyridin-2-yl)ethyl)-1,2,3,6-tetrahydropyridin-4-yl)-N,N-dimethylbenzamide], the pKd was 5.63. Then `CN(C)C(=O)c1ccc(C2CCN(Cc3cc4c(-c5ccc(N)nn5)ccnc4n3C)CC2)cc1` [Example 1k68, 4-[1-[[4-(6-Aminopyridazin-3-yl)-1-methyl-pyrrolo[2,3-b]pyridin-2-yl]methyl]-4-piperidyl]-N,N-dimethyl-benzamide], with 7.87; and `C[C@H](c1cc2c(-c3ccc(N)cn3)ccnc2n1C)N1CCC(c2ccc(C(=O)N(C)C)cc2)CC1` [Example 1af16, (R)-4-(1-(1-(4-(5-aminopyridin-2-yl)-1-methyl-1H-pyrrolo[2,3-b]pyridin-2-yl)ethyl)piperidin-4-yl)-N,N-dimethylbenzamide], with 7.81. As to `CN(C)C(=O)c1ccc(C2CCN(Cc3cc4c(-c5ccc(N)nc5OC(F)(F)F)ccnc4n3C)CC2)cc1` [Example 1k18, 4-[1-[[4-[6-Amino-2-(trifluoromethoxy)-3-pyridyl]-1-methyl-pyrrolo[2,3-b]pyridin-2-yl]methyl]-4-piperidyl]-N,N-dimethyl-benzamide], the pKd was 6.82. With `CNc1ccc(-c2ccnc3c2cc(CN2CCC(c4ncc(C(=O)N(C)C)cc4C)CC2)n3C)cn1` [Example 1s15, N,N,5-Trimethyl-6-[1-[[1-methyl-4-[6-(methylamino)-3-pyridyl]pyrrolo[2,3-b]pyridin-2-yl]methyl]-4-piperidyl]pyridine-3-carboxamide], the pKd was 6.92. To `CN(C)C(=O)c1ccc(C2CCN(Cc3cc4c(-c5ncc(N)cc5C(F)(F)F)ccnc4n3C)CC2)cc1` [Example 1k74, 4-[1-[[4-[5-Amino-3-(trifluoromethyl)-2-pyridyl]-1-methyl-pyrrolo[2,3-b]pyridin-2-yl]methyl]-4-piperidyl]-N,N-dimethyl-benzamide] belongs 5.14; to `C[C@@H]1CN(c2ccc(C(=O)N(C)C)cc2)CCN1Cc1cc2c(-c3ccc(N)nc3)ccnc2n1C` [Example 1n4, 4-[(3R)-4-[[4-(6-amino-3-pyridyl)-1-methyl-pyrrolo[2,3-b]pyridin-2-yl]methyl]-3-methyl-piperazin-1-yl]-N,N-dimethyl-benzamide], 6.83.

Consider `CN(C)C(=O)c1ccc(C2CCN(Cc3cc4c(-c5cnc(N)c(OC(F)(F)F)c5)ccnc4n3C)CC2)cc1` [Example 1k48, 4-[1-[[4-[6-Amino-5-(trifluoromethoxy)-3-pyridyl]-1-methyl-pyrrolo[2,3-b]pyridin-2-yl]methyl]-4-piperidyl]-N,N-dimethyl-benzamide], for which the pKd was 5.08. Then `CNC(=O)c1ccc(-c2ccnc3c2cc(CN2CCC(c4ccc(C(=O)N(C)C)cc4)CC2)n3C)cc1` [Example 1j7, 4-[2-[[4-[4-(Dimethylcarbamoyl)phenyl]-1-piperidyl]methyl]-1-methyl-pyrrolo[2,3-b]pyridin-4-yl]-N-methyl-benzamide], with 5.46; and `[2H]C([2H])([2H])N(C(=O)c1ccc(C2CCN([C@H](C)c3cc4c(-c5ccc(N)nc5C#N)ccnc4n3C)CC2)cc1)C([2H])([2H])[2H]` [Example 1af30, (R)-4-(1-(1-(4-(6-amino-2-cyanopyridin-3-yl)-1-methyl-1H-pyrrolo[2,3-b]pyridin-2-yl)ethyl)piperidin-4-yl)-N,N-bis(methyl-d3)benzamide], with 7.62. To `CN(C)C(=O)c1ccc(C2CCN(Cc3cc4c(-c5ccc(N)c(Cl)n5)ccnc4n3C)CC2)cc1` [Example 1k77, 4-(1-((4-(5-Amino-6-chloropyridin-2-yl)-1-methyl-1H-pyrrolo[2,3-b]pyridin-2-yl)methyl)piperidin-4-yl)-N,N-dimethylbenzamide] belongs 7.28. Then `CNc1ccc(-c2ccnc3c2cc(C(C)N2CCC(c4ccc(C(=O)N(C)C)cc4)CC2)n3C)cn1` (stereo not shown) [Example 1z13, N,N-dimethyl-4-(1-(1-(1-methyl-4-(6-(methylamino)pyridin-3-yl)-1H-pyrrolo[2,3-b]pyridin-2-yl)ethyl)piperidin-4-yl)benzamide], with 7.65; and `Cc1cc(N)cc(C)c1-c1ccnc2c1cc(CN1CCC(c3ccc(C(=O)N(C)C)cc3)CC1)n2C` [Example 1k32, 4-[1-[[4-(4-Amino-2,6-dimethyl-phenyl)-1-methyl-pyrrolo[2,3-b]pyridin-2-yl]methyl]-4-piperidyl]-N,N-dimethyl-benzamide], with 5.91; and `C[C@@H](c1cc2c(-c3ccc(N)nc3)ccnc2n1C)N1CCC(c2ccc(C(=O)N(C)C)cc2)CC1` [Example 1af11, (S)-4-(1-(1-(4-(6-amino-pyridin-3-yl)-1-methyl-1H-pyrrolo[2,3-b]pyridin-2-yl)ethyl)-piperidin-4-yl)-N,N-dimethyl-benzamide], with 6.99. `CN(C)C(=O)c1ccc(C2CCN(Cc3cc4c(-c5cnc(N)c(-c6nnn[nH]6)c5)ccnc4n3C)CC2)cc1` [Example 1k64, 4-[1-[[4-[6-Amino-5-(2H-tetrazol-5-yl)-3-pyridyl]-1-methyl-pyrrolo[2,3-b]pyridin-2-yl]methyl]-4-piperidyl]-N,N-dimethyl-benzamide]: the pKd was 5.77. As to `CNc1ccc(-c2ccnc3c2cc(CN2CC[C@@H](c4ccc(C(=O)N(C)C)cc4)[C@H](F)C2)n3C)cn1` (single isomer, unassigned) [Example 1s25], the pKd was 7.45. To “4-(1-((4-(6-Amino-5-methoxypyridin-3-yl)-1-methyl-1H-pyrrolo[2,3-b]pyridin-2-yl)methyl)piperidin-4-yl)-N,N-dimethylbenzamide [Example 1k7]” belongs 6.08; to `CN(C)C(=O)c1ccc(C2CCN(Cc3cc4c(-c5cnc(N)c(C(=O)O)c5)ccnc4n3C)CC2)cc1` [Example 1k9, 2-Amino-5-[2-[[4-[4-(dimethylcarbamoyl)phenyl]-1-piperidyl]methyl]-1-methyl-pyrrolo[2,3-b]pyridin-4-yl]pyridine-3-carboxylic acid], 6.84; to `CN(C)C(=O)c1ccc(C2CCN(Cc3cc4c(-c5ccc(N)c(C#N)n5)ccnc4n3C)CC2)cc1` [Example 1k75, 4-(1-((4-(5-Amino-6-cyanopyridin-2-yl)-1-methyl-1H-pyrrolo[2,3-b]pyridin-2-yl)methyl)piperidin-4-yl)-N,N-dimethylbenzamide], 7.08. To `CNc1ccc(-c2ccnc3c2cc(CN2CCC(c4ccc(C(=O)N(C)C)cc4C)CC2)n3C)cn1` [Example 1s9, N,N,3-Trimethyl-4-[1-[[1-methyl-4-[6-(methylamino)-3-pyridyl]pyrrolo[2,3-b]pyridin-2-yl]methyl]-4-piperidyl]benzamide] belongs 7.32; to `Cc1cc(C(=O)N(C)C)ccc1C1=CCN([C@H](C)c2cc3c(-c4ccc(N)cn4)ccnc3n2C)CC1` [Example 1af34, (R)-4-(1-(1-(4-(5-aminopyridin-2-yl)-1-methyl-1H-pyrrolo[2,3-b]pyridin-2-yl)ethyl)-1,2,3,6-tetrahydropyridin-4-yl)-N,N,3-trimethylbenzamide], 7.73. Then `CN(C)C(=O)c1ccc(C2CCN(Cc3cc4c(-c5ccc(N)c(C(=O)C(=O)O)c5)ccnc4n3C)CC2)cc1` [Example 1j13, 2-(2-Amino-5-(2-((4-(4-(dimethylcarbamoyl)phenyl)piperidin-1-yl)methyl)-1-methyl-1H-pyrrolo[2,3-b]pyridin-4-yl)phenyl)-2-oxoacetic acid], with 7.89. `[2H]C([2H])([2H])N(C(=O)c1ccc(C2=CCN([C@@H](C)c3cc4c(-c5ccc(N)nc5C#N)ccnc4n3C)CC2)c(C)c1)C([2H])([2H])[2H]` [Example 1af25, (S)-4-(1-(1-(4-(6-amino-2-cyanopyridin-3-yl)-1-methyl-1H-pyrrolo[2,3-b]pyridin-2-yl)ethyl)-1,2,3,6-tetrahydropyridin-4-yl)-3-methyl-N,N-bis(methyl-d3)benzamide]: the pKd was 6.44. To `CNc1ccc(-c2ccnc3c2cc(CN2CCN(c4ccc(C(=O)N(C)C)cc4)CC2=O)n3C)cn1` [Example 1s5, N,N-Dimethyl-4-[4-[[1-methyl-4-[6-(methylamino)-3-pyridyl]pyrrolo[2,3-b]pyridin-2-yl]methyl]-3-oxo-piperazin-1-yl]benzamide] belongs 7.15. Turning to `CCS(=O)(=O)n1c(CN2CCC(c3ccc(C(=O)N(C)C)cc3)CC2)cc2c(-c3ccc(NC)nc3)ccnc21` [Example 1x2, 4-[1-[[1-Ethylsulfonyl-4-[6-(methylamino)-3-pyridyl]pyrrolo[2,3-b]pyridin-2-yl]methyl]-4-piperidyl]-N,N-dimethyl-benzamide], the pKd is 7.27.

In the case of `[2H]C([2H])([2H])N(C(=O)c1ccc(C2CCN(Cc3cc4c(-c5ccc(NC)cn5)ccnc4n3C)CC2)cc1)C([2H])([2H])[2H]` [Example 1k70, 4-[1-[[1-methyl-4-[5-(methylamino)-2-pyridyl]pyrrolo[2,3-b]pyridin-2-yl]methyl]-4-piperidyl]-N,N-bis(trideuteriomethyl)benzamide], the pKd is 7.28.

Take `CNc1ccc(-c2ccnc3c2cc(CN2CC[C@H](c4ccc(C(=O)N(C)C)cc4)C[C@@H]2C)n3C)nc1` [Example 1o27, N,N-dimethyl-4-((2S,4S)-2-methyl-1-((1-methyl-4-(5-(methylamino)-pyridin-2-yl)-1H-pyrrolo[2,3-b]pyridin-2-yl)methyl)piperidin-4-yl)benzamide]: the pKd was 6.83. To `CN(C)C(=O)c1ccc(C2CCN(Cc3cc4c(-c5ccc(N)c(C(F)(F)F)n5)ccnc4n3C)CC2)cc1` [Example 1k76, 4-[1-[[4-[5-Amino-6-(trifluoromethyl)-2-pyridyl]-1-methyl-pyrrolo[2,3-b]pyridin-2-yl]methyl]-4-piperidyl]-N,N-dimethyl-benzamide] belongs 6.00.
